The values below come from patent US9493464B2, “Wee1 degradation inhibitors” (The Scripps Research Institute, priority 2012, dated 2016).

“Also recorded” adds a separate entry of the source.

For one assay, the system named is K328M-Wee1-luciferase. The experiment in a line: K328M-Wee1-luciferase degradation with cycloheximide. The assay is classed as cell-based. To be noted: HeLa cells, 5 μM, result in words. As for the experimental part:
(§1) The percentage of signal relative to the proteasome inhibitor MG132 is shown. […] A Western blot is shown of endogenous Wee1 or Skp1 (loading control) of HeLa cells incubated with 5 μM of indicated compounds for 24 hours. […] The 0 time point was set to 100%. […] The extent of degradation was measured as in FIG. D.

In another assay the test system is Luciferase. The experiment in a line: Luciferase alone control (PGL3 vector). The format is cell-based. To be noted: HeLa cells, cycloheximide, 5 μM; result in words. As for the experimental part: as §1
5 μM of indicated compounds were incubated with K328M-Wee1-Luciferase or Luciferase expressing HeLa cells and the extent of stabilization measured after adding Brite-lite. MG132 was used as a positive control.
Similar assays have previously been described; PubChem AID 1807.

Turning to `c1ccc2[nH]c(CNc3nc(N4CCOCC4)nc4c3ncn4-c3ccsc3)nc2c1` [SR-653234], in the assay with K328M-Wee1-luciferase, the K328M-Wee1-luciferase degradation entry is reported as “inhibited degradation of K328M-Wee1-luciferase; also recorded: inhibits K328M-Wee1-luciferase degradation”. In addition, the luciferase degradation result with Luciferase is recorded as “does not affect luciferase degradation”.
